Our source for the Activity values is ChEMBL document CHEMBL1151444, “Failure of current cefepime breakpoints to predict clinical outcomes of bacteremia caused by gram-negative organisms” (2007).

Common to all, as to type: functional
For assay [1], the system named is Enterobacter sp. Nature of the assay: Antibacterial activity in Enterobacter sp. infected patient assessed as mortality after 28 days.
The test system of assay [2] is Serratia sp. Nature of the assay: Antibacterial activity in Serratia sp. infected patient assessed as mortality after 28 days.
The test system of assay [3] is Escherichia coli. The assay can be described thus: Antibacterial activity in Escherichia coli infected patient assessed as mortality after 28 days.
The subject of assay [4] is Klebsiella sp. Nature of the assay: Antibacterial activity in Klebsiella sp. infected patient assessed as mortality after 28 days.
Assay [5] deals with Pseudomonas aeruginosa. The assay can be described thus: Antibacterial activity in Pseudomonas aeruginosa infected patient assessed as mortality after 28 days.
For assay [6], the system named is Proteus sp. Nature of the assay: Antibacterial activity in Proteus sp. infected patient assessed as mortality after 28 days.

As for `CO/N=C(\C(=O)N[C@@H]1C(=O)N2C(C(=O)[O-])=C(C[N+]3(C)CCCC3)CS[C@H]12)c1csc(N)n1` [CEFEPIME], the Activity is 21.7% in assay [1]; 23.8% in assay [2]; 21.2% in assay [3]; 30.4% in assay [4]; 39.1% in assay [5]; 25% in assay [6].
